In article PMC5886804 (Nature, 2018):

Legend:
[1] = target: MmTPC1 Leu11Ala/Ile12Ala (plasma membrane-targeting, considered as the wild type channel) (Mus musculus, UniProt Q9EQJ0, I12A/L11A/R540Q); experiment: inside-out patch clamp, HEK293 cells; type: cell-based
[2] = target: Mouse TPC1 (two-pore channel 1) (mouse) (UniProt Q9EQJ0); experiment: cryo-EM structure

Compound | EC50 [1] | stoichiometry N [2]
CCCCCCCC(=O)OC[C@H](COP(=O)(O)O[C@@H]1[C@H](O)[C@H](OP(=O)(O)O)[C@@H](O)[C@H](OP(=O)(O)O)[C@H]1O)OC(=O)CCCCCCC [PtdIns(3,5)P2] | ~145 nM | 
Mouse TPC1 (two-pore channel 1) (from UniProt Q9EQJ0-1 1-817) (natural protein) |  | 2
